Laboratory results reported in paper PMC10065799, “High-throughput profiling of sequence recognition by tyrosine kinases and SH2 domains using bacterial peptide display” (eLife, 2023).

Key:
[1] = system: 4G10 Platinum pan-phosphotyrosine antibody; experiment: Phosphorylated pTyr-Var library selection with biotinylated pan-phosphotyrosine antibody; assay type: binding, mouse; conditions: enrichment score, sheet SH2-vs-peptide
Protocol: After the desired time of library phosphorylation, kinase activity was quenched with 25 mM EDTA and the cells were washed with PBS containing 0.2% BSA. Kinase-treated cells were then labeled with a 1:1000 dilution of biotinylated 4G10 Platinum anti-phosphotyrosine antibody (Millipore) for an hour on ice and washed with PBS containing 0.1% BSA and 2 mM EDTA (isolation buffer). The cells were finally resuspended in PBS containing 0.1% BSA. The phosphorylated, antibody-labeled cells were then mixed with magnetic beads from Dynabeads FlowComp Flexi kit (Invitrogen), at a ratio of 37.5 μL of washed beads per 50 μL of cell suspension, diluted into 450 μL of isolation buffer. The suspension was rotated at 4 °C for 30 minutes, then 375 μL of isolation buffer was added and the beads were separated from the bulk solution on a magnetic rack. The beads were washed once with 1 mL of isolation buffer, and then the supertantant were removed by aspiration. […] The bead/lysate mixture was centrifuged to pellet the beads and the mixture was stored at -20 °C.

c-Src SH2 domain = c-Src SH2 domain (Homo sapiens, UniProt P12931); experiment: pTyr-Var library SH2 domain screen with SH2-dynabeads (enrichment scores)
Fes = experiment: pTyr-Var library bacterial peptide display kinase screen (enrichment scores); assay type: biochemical; conditions: mean of log2 of enrichment over R1-R6
FGFR1 kinase domain = experiment: as above; assay type: biochemical, human
c-Src kinase domain = c-Src kinase domain (Homo sapiens, UniProt P12931); experiment: as above; assay type: biochemical
Grb2 SH2 domain = experiment: pTyr-Var library SH2 domain screen with SH2-dynabeads (enrichment scores)
Hck kinase domain = experiment: pTyr-Var library bacterial peptide display kinase screen (enrichment scores); assay type: biochemical, human
AncSZ kinase domain = experiment: as above; assay type: biochemical
FGFR3 kinase domain = experiment: as above; assay type: biochemical, human
Jak2 = experiment: as above; assay type: biochemical, human
SHP2 C-SH2 domain = experiment: pTyr-Var library SH2 domain screen with SH2-dynabeads (enrichment scores)
EPHB2 kinase domain = experiment: pTyr-Var library bacterial peptide display kinase screen (enrichment scores); assay type: biochemical, human
EPHB1 kinase domain = experiment: as above; assay type: biochemical, human
Fer kinase domain = experiment: as above; assay type: biochemical, mouse
c-Abl kinase domain = biological target: T1, c-Abl kinase domain (Mus musculus, UniProt P00520); experiment: as above; assay type: biochemical
T1 sequence (P00520 242-493 limits assumed): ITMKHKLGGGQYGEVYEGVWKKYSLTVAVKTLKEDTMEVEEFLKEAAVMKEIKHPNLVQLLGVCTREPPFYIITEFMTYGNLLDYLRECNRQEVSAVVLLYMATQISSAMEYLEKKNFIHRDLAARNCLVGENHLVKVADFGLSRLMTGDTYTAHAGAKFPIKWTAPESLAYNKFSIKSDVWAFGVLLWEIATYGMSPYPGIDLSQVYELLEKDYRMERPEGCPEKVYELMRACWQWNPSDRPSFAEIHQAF

MERTK kinase domain = experiment: as above; assay type: biochemical, human
Fyn kinase domain = experiment: as above; assay type: biochemical, human
[2] = mean of log2 enrichment of reference peptide, n = 5
[3] = pTyr-Var library, reference peptide enrichment, mean of n = 5
[4] = mean of log2 of enrichment over R1-R4
[5] = pTyr-Var library, enrichment score, replicate 1
[6] = pTyr-Var library, enrichment score, replicate 3
[7] = pTyr-Var library, enrichment score, replicate 4
[8] = mean of log2 enrichment of reference peptide, n = 4
[9] = pTyr-Var library, reference peptide enrichment, mean of n = 4

c-Src (mean) (c-Src SH2 domain; enrichment score, phosphorylated pTyr-Var library, sheet SH2-vs-peptide, mean): 0.535
mean of log2(reference) (c-Src SH2 domain; mean of log2 enrichment of reference peptide, R1-R3, sheet c-Src): -0.9781
ref. mean (c-Src SH2 domain; reference peptide, mean of R1-R3, sheet c-Src): 0.535
Fes mean of log2(enrichment) (Fes): -0.04028
mean of log2(reference) (FGFR1 kinase domain; [2]): -0.9981
ref. mean (FGFR1 kinase domain; [3]): 0.5192
c-Src mean of log2(enrichment) (c-Src kinase domain; [4]): -1.394
c-Src enrich. R1 (c-Src kinase domain; [5]): 0.4801
c-Src enrich. R3 (c-Src kinase domain; [6]): 0.3246
c-Src enrich. R4 (c-Src kinase domain; [7]): 0.3798
Hck mean of log2(enrichment) (Hck kinase domain; mean of log2(variant) / mean of log2(reference), R1-R4): 0.599
Hck enrich. R1 (Hck kinase domain; [5]): 0.4967
Hck enrich. R3 (Hck kinase domain; [6]): 0.9831
Hck enrich. R4 (Hck kinase domain; [7]): 0.3063
AncSZ mean of log2(enrichment) (AncSZ kinase domain; mean of log2 of enrichment over R1-R5): -0.4662
AncSZ enrich. R1 (AncSZ kinase domain; [5]): 0.5771
AncSZ enrich. R3 (AncSZ kinase domain; [6]): 0.5974
AncSZ enrich. R4 (AncSZ kinase domain; [7]): 1.037
AncSZ enrich. R5 (AncSZ kinase domain; pTyr-Var library, enrichment score, replicate 5): 0.9242
mean of log2(reference) (FGFR3 kinase domain; [2]): -0.6609
ref. mean (FGFR3 kinase domain; [3]): 0.649
Jak2 mean of log2(enrichment) (Jak2; mean of log2 of enrichment over R1-R3): -0.2312
Jak2 enrich. R1 (Jak2; [5]): 0.7671
Jak2 enrich. R3 (Jak2; [6]): 0.8013
mean of log2(reference) (EPHB2 kinase domain; [8]): -0.8971
ref. mean (EPHB2 kinase domain; [9]): 0.5418
mean of log2(reference) (EPHB1 kinase domain; [8]): -0.6057
ref. mean (EPHB1 kinase domain; [9]): 0.6623
Fer mean of log2(enrichment) (Fer kinase domain; [4]): -1.275
Fer enrich. R1 (Fer kinase domain; [5]): 0.6179
Fer enrich. R3 (Fer kinase domain; [6]): 0.5252
Fer enrich. R4 (Fer kinase domain; [7]): 0.2478
c-Abl mean of log2(enrichment) (c-Abl kinase domain; [4]): -0.5355
c-Abl enrich. R1 (c-Abl kinase domain; [5]): 0.4542
c-Abl enrich. R3 (c-Abl kinase domain; [6]): 0.6528
c-Abl enrich. R4 (c-Abl kinase domain; [7]): 0.8371
mean of log2(reference) (MERTK kinase domain; [8]): -1.427
ref. mean (MERTK kinase domain; [9]): 0.3924
Fyn mean of log2(enrichment) (Fyn kinase domain; [4]): -1.219
Fyn enrich. R1 (Fyn kinase domain; [5]): 0.5501
Fyn enrich. R3 (Fyn kinase domain; [6]): 0.3301
Fyn enrich. R4 (Fyn kinase domain; [7]): 0.4584
Sequence: ATVLNYLPKCI [A2M_Y817]
4G10 (mean) [1]: 0.6373
mean of log2(reference) (Grb2 SH2 domain; Grb2 SH2, mean of log2 enrichment of reference, R1-R3): -0.1568
ref. mean (Grb2 SH2 domain; reference peptide enrichment score, Grb2 SH2, mean of R1-R3): 0.8993
mean of log2(reference) (SHP2 C-SH2 domain; SHP2-C SH2, mean of log2 enrichment of reference, R1-R3): -0.4562
ref. mean (SHP2 C-SH2 domain; reference peptide enrichment score, SHP2-C SH2, mean of R1-R3): 0.736
